Reference: paper PMC6052345, “Functional Analysis of the Chemosensory Protein MsepCSP8 From the Oriental Armyworm Mythimna separata” (Frontiers in Physiology, 2018)

Key:
[1] = system: Mythimna separata; test: Y-tube olfactometer bioassay (before RNAi); type: in vivo; settings: for behavioral response in words: male and female moths; for behavioral response (attraction) of females: 3-day-old female moths; for behavioral response (attraction) of females / behavioral response (attraction) of males: 10 μl volatile vs liquid paraffin; for behavioral response (attraction) of males: 3-day-old male moths
From the text: Mythimna separata behavioral responses were examined by olfactometer bioassays ([Cao et al., 2015]) performed in a glass Y-tube (base = 4.0 cm diameter by 25 cm length, arms = 3.0 cm diameter by 26 cm length) using 10 different volatile compounds (Sigma-Aldrich).
Air entering the tube was passed through activated charcoal for filtration and humidified using deionised water. Filtered air was split between two chambers; one chamber containing liquid paraffin (used as control) and the other containing the test volatile. Each chamber was connected to one arm of the Y-tube. Airflow was kept constant at 6.0 l min^-1 throughout the experiment using an inline flow meter (Gilmont Instr., Barnant Co., Barrington, IL, United States). Orange light was used for this experiment. The whole experiment was conducted in a dark room, and the relative humidity and temperature were maintained at 70 ± 5% and 25 ± 1°C, respectively. A 10 μl of volatile compound was applied to 10 mm × 10 mm filter papers (Whatman No. 1) that was placed in the chamber connected to one arm of the Y-tube. A separate Y-tube was used for male and female moths.
To perform bioassays, a 3-day-old moth, either male or female, was released in the base of the Y-tube. Each insect was given 10 min to respond to the treatment, and the number of moths showing attraction, repulsion or no response was counted. Approximately 30 min before onset of the trial, male and female adults were placed into separate glass tubes (50 ml) and covered with a cotton plug to avoid exposure to tested volatiles. In total, 60 adults (30 male and 30 female) were tested per volatile compound, and χ^2 tests were applied to evaluate the number of M. separata individuals attracted to or repelled by volatiles.

[2] = target: MsepCSP8 (Mythimna separata, UniProt A0A1V1WC03); test: Fluorescence competitive binding assay with 1-NPN as fluorescent probe; settings: for IC50: displacement of 1-NPN; for Ki: calculated from IC50; for binding affinity to MsepCSP8 in words: discussion of Table 1, pH not stated
Sequence of MsepCSP8 (A0A1V1WC03 entry or part of it): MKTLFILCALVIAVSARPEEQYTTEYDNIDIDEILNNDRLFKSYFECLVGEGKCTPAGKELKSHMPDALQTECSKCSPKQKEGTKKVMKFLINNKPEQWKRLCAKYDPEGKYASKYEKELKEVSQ
Experimental: The expressed protein was obtained in soluble form in the supernatant, and purification was accomplished using a Ni affinity chromatography column (GE Healthcare, Uppsala, Sweden). Bound protein was eluted by digestion with recombinant bovine enterokinase at 26°C for 15 h to remove the His-tag. Expression and purification were verified by 15% sodium dodecyl sulfate-polyacrylamide gel electrophoresis (SDS-PAGE), and protein concentration was measured as described by [Cao et al. (2017)]. Dialysis of purified protein was carried out in 30 mM Tris-HCl buffer [Tris(hydroxymethyl)aminomethane] at pH 7.4 and pH 5.0 before fluorescence binding assays, and protein was stored at -80°C until use.
Fluorescence competitive binding assays were performed to determine the binding affinity of MsepCSP8 for 56 ligands using N-phenyl-1-naphthylamine (1-NPN) as a fluorescent probe. Stock solutions of ligands were prepared in spectrophotometric-grade methanol. […] Mixtures of 1-NPN and protein were excited at 337 nm wavelength, and emission spectra were recorded from 360 to 600 nm using a fluorescence spectrophotometer (RF-5301PC Shimadzu, Kyoto, Japan). Binding of selected ligands with MsepCSP8 (1:1 protein:ligand stoichiometry) was evaluated using 1-NPN as a fluorescent probe, with the final concentration of the product ranging from 0 to 20 μM. […] Three independent measurements were made for all experiments. The binding affinity (Ki) of MsepCSP8 for all tested ligands was calculated based on IC50 values as follows:
Ki=IC50/(1 + [1−NPN]/K1–NPN)
where [1-NPN] is the free concentration of 1-NPN, and K1-NPN is the dissociation constant of the complex of MsepCSP8 and 1-NPN.

[3] = system: Mythimna separata; test: Y-tube olfactometer bioassay after dsMsepCSP8 injection; type: in vivo; settings: males and females, 3 days post-eclosion
Experimental: The dsRNA (500 nl of 10 ng nl^-1) was injected into 3rd and 4th abdominal segment of 7-day old pupae using a microinjector (World Precision Instruments Inc., Sarasota, FL, United States) under a microscope. After injection, pupae were kept in petri dishes until eclosion at 25 ± 1°C and 70 ± 5% relative humidity. Three treatments were set up for RNAi consisting of non-injected (controls), dsGFP-injected and dsRNA-injected (dsMsepCSP8) groups. After eclosion, adults from each treatment were kept in separate containers. Three individuals of each sex from all three treatments were taken at 1, 2, 3, 4, and 5 days post-eclosion for RNAi analysis. RT-qPCR was performed using the method described above.
Y-tube bioassays were performed both before and after RNAi application to confirm the MsepCSP8 gene silencing effect. Three treatments consisting of dsGFP-injected, dsRNA-injected (dsMsepCSP8), and controls were tested on both 3-day old male and female moths.

IC50 ([2]; IC50, pH 5.0) [µM]	IC50 ([2]; IC50, pH 7.4) [µM]	Ki ([2]; pH 5.0) [µM]	Ki ([2]; pH 7.4) [µM]	binding affinity to MsepCSP8 in words [2]	SMILES	behavioral response in words [1]	behavioral response (attraction) of females [1] [%]	behavioral response (attraction) of males [1] [%]	behavioral responses of adults after dsMsepCSP8 injection [3]
9.46	13.9	7.06	9.74	high binding affinities	CC1=CCC(O)(C(C)C)CC1 (single isomer, unassigned; (-)) [(–)-Terpinen-4-ol]	repelled			
22.2	9.27	16.6	6.5	bound strongly	C=CC(O)CC (centres unmarked) [1-Penten-3-ol]	distinct preference			
7.75	9.07	5.78	6.37	high affinity	CCCCCCCCCCCC(C)=O [2-Tridecanone]	non-significant attraction			
					CCCCCC=O [Hexanal]		73.33	70	not significantly affect
13.7	9.87	10.2	6.93	high affinities	CCCCCCCC=O [Octanal]	non-significant response			
27	8.82	20.1	6.19	high binding affinities	CC1=CCC(=C(C)C)CC1 [Terpinolene]		80	90	not significantly affect

SMILES	IC50 ([2]; IC50, pH 5.0) [µM]	IC50 ([2]; IC50, pH 7.4) [µM]	Ki ([2]; pH 5.0) [µM]	Ki ([2]; pH 7.4) [µM]	binding affinity to MsepCSP8 in words [2]	behavioral response in words [1]	behavioral response (attraction) of females [1] [%]	behavioral response (attraction) of males [1] [%]	behavioral responses of adults after dsMsepCSP8 injection [3]
CCC/C=C/C=O [Trans-2-hexenal]	8.85	12.5	6.6	8.8	high affinities	non-significant response			
